Experimental data taken from PubChem BioAssay (NCI).
Where “and” joins values, the source holds several entries; their conditions need not be identical. Equal entries are not always repeated.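 All cell lines were grown in 96-well plates and treated with compound for 48 hours. GI50 = concentration required for 50% inhibition of growth. TGI marks complete inhibition of growth.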

Key:
Assay in all cases: NCI-60 cell line screen, 48 h
ACHN renal = test system: ACHN renal
HCC-2998 colon = test system: HCC-2998 colon
HOP-62 NSCLC = test system: HOP-62 NSCLC
M14 melanoma = test system: M14 melanoma
NCI-H460 lung = test system: NCI-H460 lung
SF-539 CNS = test system: SF-539 CNS
SK-OV-3 ovarian = test system: SK-OV-3 ovarian
SNB-19 CNS = test system: SNB-19 CNS
SR leukemia = test system: SR leukemia
T-47D breast = test system: T-47D breast

| SMILES | GI50 (ACHN renal) | TGI (ACHN renal) | GI50 (HCC-2998 colon) | TGI (HCC-2998 colon) | GI50 (HOP-62 NSCLC) | TGI (HOP-62 NSCLC) | GI50 (M14 melanoma) | TGI (M14 melanoma) | GI50 (NCI-H460 lung) | TGI (NCI-H460 lung) | GI50 (SF-539 CNS) | TGI (SF-539 CNS) | GI50 (SK-OV-3 ovarian) | TGI (SK-OV-3 ovarian) | GI50 (SNB-19 CNS) | TGI (SNB-19 CNS) | GI50 (SR leukemia) | TGI (SR leukemia) | GI50 (T-47D breast) | TGI (T-47D breast) |
| --- | --- | --- | --- | --- | --- | --- | --- | --- | --- | --- | --- | --- | --- | --- | --- | --- | --- | --- | --- | --- |
| C=C1C[C@@H]2[C@H](CC[C@]3(C)C(=O)CC[C@@H]23)[C@@]2(C)C=CC(=O)C=C12 | 23.5 µM | 54.3 µM | 18.1 µM | 33.5 µM | 35.2 µM | > 83.1 µM | 20.4 µM | > 48.7 µM | 22 µM | > 63.2 µM | 25.2 µM | 74.4 µM | 39.1 µM | > 100 µM | > 58.8 µM | > 100 µM | > 54.4 µM | > 79.9 µM | > 51.6 µM | > 100 µM |
| N#CC1CCc2c(c(-c3cn[nH]c3C(F)(F)F)nc3c(F)cc4[nH]ncc4c23)C1 (stereo not drawn) | 8.21 µM | 75.1 µM | 11 µM | 28.1 µM | 6.09 µM | 33.7 µM | 3.88 µM | 21.7 µM | 11.8 µM | 38.8 µM | 3.43 µM | 15.4 µM | 3.21 µM | 10.5 µM | 5.53 µM | 61.5 µM | 2.92 µM | 59.1 µM | 3.06 µM | 26.1 µM |
| CCCNc1cccc(-n2ncc3c(N/N=C/c4ccncc4)ncnc32)c1 | > 6.92 µM | > 25 µM | > 25 µM | > 25 µM | 4.72 µM | > 25 µM | 1.69 µM | > 25 µM | 2.65 µM | > 25 µM | > 8.45 µM | > 25 µM | 6.92 µM | > 25 µM | > 25 µM | > 25 µM | 1.18 µM | > 25 µM | > 25 µM | > 25 µM |
| COc1ccc(S(=O)(=O)n2c3ccccc3n3ncc(-c4nnc(C)o4)c23)cc1 | 0.567 µM | > 100 µM | 1.38 µM | 16.8 µM | 0.566 µM | > 85.5 µM | 0.373 µM | 18.7 µM | 0.425 µM | > 48.3 µM | 0.361 µM | 7.92 µM | 0.598 µM | > 100 µM | 0.766 µM | > 100 µM | 0.77 µM | > 100 µM | 0.584 µM | 62.4 µM |
| Cc1c(N)nc(C(CC(N)=O)NCC(N)C(N)=O)nc1C(=O)NC(C(=O)NC(C)C(O)C(C)C(=O)NC(C(=O)NCCc1nc(-c2nc(C(=O)NCCCNCCCCN)cs2)cs1)C(C)O)C(OC1OC(CO)C(O)C(O)C1OC1OC(CO)C(O)C(OC(N)=O)C1O)c1cnc[nH]1 (stereo not drawn) | 0.182 µg/mL and 0.0425 µg/mL | – | – | > 10 µM | 0.137 µg/mL | – | 9.31 µg/mL | > 10 µM | 0.199 µg/mL and 0.171 µg/mL | > 10 µM | 0.21 µg/mL and 0.0169 µg/mL | – | 8.67 µg/mL | > 10 µM | 8.2 µg/mL and 29.7 µg/mL | > 10 µM | 0.0139 µg/mL | 0.287 µg/mL | 16.5 µg/mL | – |
| O=C(Nc1ccccc1C(=O)Nc1nccs1)c1ccccc1 | – | > 100 µM | – | > 100 µM | – | > 100 µM | – | > 100 µM | – | > 100 µM | – | > 100 µM | – | > 100 µM | – | > 100 µM | – | > 100 µM | – | 56.4 µM |
| COc1cc(N=Nc2cccc(S(N)(=O)=O)c2)c2ccccc2c1N | – | 30.3 µM | – | 20.7 µM | – | 21.8 µM | – | 3.43 µM | – | 25.7 µM | – | 9.19 µM | – | 30.7 µM | – | 42.2 µM | – | 35.8 µM | – | > 61.2 µM |
| C[C@H]1CC2=CC(=O)CC[C@]2(C)[C@H]2CC[C@@]3(C)[C@@H](CC[C@]3(C)O)[C@H]12 | 27.6 µM | > 100 µM | 43.8 µM | > 100 µM | 33.5 µM | > 76.1 µM | 27.2 µM | > 78.9 µM | 30 µM | > 100 µM | 32.5 µM | > 100 µM | 39.4 µM | > 100 µM | 43.3 µM | > 100 µM | 21.7 µM | 55.5 µM | 22.5 µM | 70.3 µM |
| COc1cc(/C=C/c2cc(/C=C/c3ccc(O)c(OC)c3)[nH]c(=O)n2)ccc1O | 8.84 µM | > 100 µM | 3.55 µM | 14.3 µM | 4.11 µM | 17.6 µM | 3.12 µM | 15.4 µM | 3.12 µM | 18.5 µM | 3.87 µM | > 100 µM | 2.33 µM | 4.89 µM | 3.38 µM | > 100 µM | 1.91 µM | 6.18 µM | 6.5 µM | 36.9 µM |
| COc1cc(CC2CC(c3ccc4c(c3)OCO4)OC2=O)cc(OC)c1OC (stereo not drawn) | – | > 100 µM | – | > 100 µM | – | > 100 µM | – | > 100 µM | – | > 100 µM | – | > 100 µM | – | > 100 µM | – | > 100 µM | – | > 100 µM | – | > 100 µM |
| O=S1(=O)CC(Br)C(Br)C1 (stereo not drawn) | 2.61 µM | 6.72 µM | 14.9 µM | 28.9 µM | 12.7 µM | 27.6 µM | 5.67 µM | 20.8 µM | 20.4 µM | 61.8 µM | 13.6 µM | 54.4 µM | 23.2 µM | 90 µM | 29.4 µM | > 100 µM | 3.58 µM | 21.6 µM | 3.16 µM | 13.6 µM |
| CC(C)(F)C[C@H](N[C@@H](c1ccc(-c2ccc(S(C)(=O)=O)cc2)cc1)C(F)(F)F)C(=O)NC1(C#N)CC1 | > 55 µM and 39.5 µM | > 100 µM | > 100 µM | > 100 µM | 12.2 µM and 22.6 µM | 40.7 µM and 53.5 µM | > 100 µM | > 100 µM | 33.6 µM and 49.7 µM | 55 µM and > 100 µM | 11.8 µM and 23.1 µM | 31.8 µM and 53.2 µM | 23 µM and 27.5 µM | 55 µM and 70.7 µM | 16.6 µM and 18.3 µM | 55 µM and 62.2 µM | 93.1 µM | > 100 µM | 35.7 µM and 99.7 µM | 55 µM and > 100 µM |
| C#CCOc1cccc(Nc2ncc3ncn(C4CCN(C(=O)CCl)C4)c3n2)c1 (stereo not drawn) | 14.6 µM | 46.2 µM | > 62.5 µM | > 62.5 µM | > 62.5 µM | > 62.5 µM | > 62.5 µM | > 62.5 µM | > 62.5 µM | > 62.5 µM | > 62.5 µM | > 62.5 µM | > 62.5 µM | > 62.5 µM | > 62.5 µM | > 62.5 µM | 7.72 µM | > 62.5 µM | > 62.5 µM | > 62.5 µM |
| CC[C@H](C)[C@H](NC(=O)c1nccn1C)C(=O)N(C)[C@H](C[C@@H](OC(C)=O)c1nc(C(=O)N[C@@H](Cc2ccccc2)C[C@H](C)C(=O)OC)cs1)C(C)C | 2.06 µM | > 33.3 µM | 1.08 µM | > 33.3 µM | 1.42 µM | > 33.3 µM | 0.557 µM | 1.6 µM | 1.22 µM | > 33.3 µM | 0.702 µM | 1.97 µM | 1.72 µM | > 33.3 µM | 1.28 µM | > 33.3 µM | 0.179 µM | > 33.3 µM | > 33.3 µM | > 33.3 µM |
| O=C1NC(O)CCN1C1CC(O)C(CO)O1 (stereo not drawn) | – | > 100 µM | – | > 100 µM | – | > 100 µM | – | > 100 µM | – | > 100 µM | – | > 100 µM | – | > 100 µM | – | > 100 µM | – | > 100 µM | – | > 100 µM |
| Cc1cc(S(=O)(=O)Nc2nc3cc(-c4ccsc4)sc3c(=O)n2N)c(S)cc1Cl | 30.4 µM | > 100 µM | 48.4 µM | > 100 µM | 50 µM | > 100 µM | > 100 µM | > 100 µM | 31.4 µM | > 100 µM | 67.4 µM | > 100 µM | 88.6 µM | > 100 µM | 86 µM | > 100 µM | > 100 µM | > 100 µM | 28.8 µM | > 100 µM |
| CN1N=Nc2c(C(F)(F)F)nn(-c3ccccc3)c2N(C)C1=O | > 100 µM | > 100 µM | > 100 µM | > 100 µM | > 100 µM | > 100 µM | > 100 µM | > 100 µM | > 100 µM | > 100 µM | > 100 µM | > 100 µM | > 100 µM | > 100 µM | > 100 µM | > 100 µM | > 100 µM | > 100 µM | > 100 µM | > 100 µM |
| C[C@]12CC[C@H]3[C@@H](CCC4=C[C@@H](OC5OCC(OC6OC(CO)C(O)C(O)C6O)C(O)C5O)CC[C@@]43C=O)[C@@]1(O)CCC2C1=CC(=O)OC1 (stereo partly drawn) | – | 2.25 µM | – | 1.38 µM | – | 1.84 µM | – | 2.79 µM | – | 0.534 µM | – | 1.68 µM | – | 3.75 µM | – | 11.9 µM | – | 0.627 µM | – | > 24.8 µM |
| O=[N+]([O-])c1ccc(NC(=S)N/N=C(\c2ccccc2)c2ccccn2)cc1 | 1.34 µM | 2.62 µM and 2.39 µM | 2.1 µM | 4.26 µM and 2.83 µM | 1.3 µM | 2.98 µM and 1.62 µM | 1.38 µM | 2.33 µM and 2.77 µM | 1.47 µM | 3.36 µM and 11.9 µM | 1.41 µM | 2.9 µM and 3.33 µM | 2.28 µM | 4.09 µM and 2.95 µM | – | 3.12 µM and 2.97 µM | 0.0286 µM | 2.98 µM and > 27.4 µM | – | 3.03 µM |
